For orientation: pEC50 means −log10 of the EC50, conventionally taken in molar units.

pEC50: −log10 of the molar value.

T1 sequence (Q14416 19-872): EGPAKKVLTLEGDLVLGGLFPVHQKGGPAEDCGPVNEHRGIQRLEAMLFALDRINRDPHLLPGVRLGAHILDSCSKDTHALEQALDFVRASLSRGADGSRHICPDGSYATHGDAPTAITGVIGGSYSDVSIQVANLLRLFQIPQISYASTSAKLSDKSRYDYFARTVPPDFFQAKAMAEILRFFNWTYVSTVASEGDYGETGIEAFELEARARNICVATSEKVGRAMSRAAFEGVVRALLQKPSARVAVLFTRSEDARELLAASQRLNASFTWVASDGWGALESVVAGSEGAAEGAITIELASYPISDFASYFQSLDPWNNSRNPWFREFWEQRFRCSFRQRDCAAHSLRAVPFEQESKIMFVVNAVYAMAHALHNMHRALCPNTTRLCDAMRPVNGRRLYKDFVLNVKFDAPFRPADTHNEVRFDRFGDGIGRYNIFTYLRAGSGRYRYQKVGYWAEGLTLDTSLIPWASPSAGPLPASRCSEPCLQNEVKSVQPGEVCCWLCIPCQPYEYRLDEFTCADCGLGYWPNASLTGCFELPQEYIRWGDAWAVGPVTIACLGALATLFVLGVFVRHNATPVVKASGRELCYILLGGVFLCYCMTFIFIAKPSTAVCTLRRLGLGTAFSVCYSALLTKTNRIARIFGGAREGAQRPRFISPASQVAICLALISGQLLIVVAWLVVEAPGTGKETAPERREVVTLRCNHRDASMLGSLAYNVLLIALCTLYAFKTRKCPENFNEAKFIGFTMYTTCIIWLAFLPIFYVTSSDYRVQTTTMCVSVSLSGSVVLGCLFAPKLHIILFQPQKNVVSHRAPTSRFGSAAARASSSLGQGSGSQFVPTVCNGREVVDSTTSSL

One assay concerns the target T1, recombinant human mGluR2 (Homo sapiens, UniProt Q14416).
T1 construct: expressed in transfected cells
The experiment in a line: FLIPR Ca2+ mobilization assay, potentiation of mGluR2 receptor. The class given is cell-based. The conditions noted are these: CHO dhfr- cells expressing human mGluR2 and Gα16; potentiation after EC20 glutamate (900 nM); read-out: FLIPR EC50. The procedure:
Activity in potentiating the mGluR2 receptor may be determined as follows. The compounds of the present invention are tested in a fluorescence laser imaging plate reader (FLIPR) based assay. This assay is a common functional assay to monitor Ca^2+ mobilization in whole cells expressing recombinant receptor coupled with a promiscuous G-protein. CHO dhfr-cells stably expressing recombinant human mGluR2 and Gα16 loaded with Fluo-4 AM (Invitrogen, Carlsbad Calif.) are treated with dose responses of compounds and the Ca^2+ response is monitored on a FLIPR384 (Molecular Devices, Sunnydale Calif.) for agonist activity. The potentiation response is monitored after a subsequent addition of an EC20 concentration of glutamate (900 nM). The maximum calcium response at each concentration of compound for agonist or potentiation are plotted as dose responses and the curves are fitted with a four parameters logistic equation giving EC50 and Hill coefficient using the iterative non linear curve fitting software program.
As to `Cn1c(=O)n(CC2CC2)c2ccc(-c3ccncc3C(F)(F)F)c(F)c21` [Example 7-47, 1-(cyclopropylmethyl)-4-fluoro-3-methyl-5-[3-(trifluoromethyl)pyridin-4-yl]-1,3-dihydro-2H-benzimidazol-2-one], the pEC50 is 7.11. As for `Cn1c(=O)n(CC(C)(C)C)c2ccc(-c3ccc4c(c3)CN(C(=O)OC(C)(C)C)CC4)cc21` [Example 1-187, tert-butyl 7-[1-(2,2-dimethylpropyl)-3-methyl-2-oxo-2,3-dihydro-1H-benzimidazol-5-yl]-3,4-dihydroisoquinoline-2(1H)-carboxylate], the pEC50 was 6.74. Same read-out and setting: for `N#CCn1c(=O)n(CC2CC2)c2ccc(-c3ccccc3)cc21` [Example 1-9, [3-(cyclopropylmethyl)-2-oxo-6-phenyl-2,3-dihydro-1H-benzimidazol-1-yl]acetonitrile] the value was 6.58; for `Cn1c(=O)n(CC(C)(C)C)c2ccc(-c3cccc(C(O)c4ccccc4)c3)cc21` (stereo not shown) [Example 10-3, 1-(2,2-dimethylpropyl)-5-{3-[hydroxy(phenyl)methyl]phenyl}-3-methyl-1,3-dihydro-2H-benzimidazol-2-one], 6.89.

For the compound `Cn1c(=O)n(CC(C)(C)C)c2ccc(-c3cc(Oc4cccc(C#N)n4)ccc3C#N)c(F)c21` [Example 8-5, 6-{4-cyano-3-[1-(2,2-dimethylpropyl)-4-fluoro-3-methyl-2-oxo-2,3-dihydro-1H-benzimidazol-5-yl]phenoxy}pyridine-2-carbonitrile], the pEC50 is 7.40. On the same count and under the same terms, the value for `Cn1c(=O)n(CC(C)(C)C)c2ccc(-c3cccc(OCc4ccccc4C(F)(F)F)c3)cc21` [Example 3-3, 1-(2,2-dimethylpropyl)-3-methyl-5-(3-{[2-(trifluoromethyl)benzyl]oxy}phenyl)-1,3-dihydro-2H-benzimidazol-2-one] was 5.44; that for `CN1CCCC(Oc2cccc(-c3ccc4c(c3)n(C)c(=O)n4CC(C)(C)C)n2)C1` (stereo not shown) [Example 5-12, 1-(2,2-dimethylpropyl)-3-methyl-5-{6-[(1-methylpiperidin-3-yl)oxy]pyridin-2-yl}-1,3-dihydro-2H-benzimidazol-2-one] was 5.48; that for `COc1ncc(-c2ccc3c(c2)n(C)c(=O)n3CC(C)(C)C)c(OC)n1` [Example 1-61, 5-(2,4-dimethoxypyrimidin-5-yl)-1-(2,2-dimethylpropyl)-3-methyl-1,3-dihydro-2H--benzimidazol-2-one] was 5.58. Turning to `Cn1c(=O)n(-c2cccc(C(F)(F)F)c2)c2ccc(-c3ccccc3C#N)cc21` [Example 6-9, 2-{3-methyl-2-oxo-1-[3-(trifluoromethyl)phenyl]-2,3-dihydro-1H-benzimidazol-5-yl}benzonitrile], the pEC50 was 7.35.

With `Cn1c(=O)n(CC(C)(C)C)c2ccc(-c3cc(C#N)cc(Oc4ccnc(C#N)c4)c3)cc21` [Example 2-38, 4-{3-cyano-5-[1-(2,2-dimethylpropyl)-3-methyl-2-oxo-2,3-dihydro-1H-benzimidazol-5-yl]phenoxy}pyridine-2-carbonitrile], the pEC50 is 7.39.

`Cn1c(=O)n(CC(C)(C)C)c2ccc(-c3ncccc3C(F)(F)F)cc21` [Example 1-148, 1-(2,2-dimethylpropyl)-3-methyl-5-[3-(trifluoromethyl)pyridin-2-yl]-1,3-dihydro-2H-benzimidazol-2-one]: the pEC50 was 6.90. For `Cn1c(=O)n(CC(C)(C)C)c2ccc(-c3cccc(C(C)(O)c4ccccc4)n3)cc21` (stereo not shown) [Example 10-5, 1-(2,2-dimethylpropyl)-5-[6-(1-hydroxy-1-phenylethyl)pyridin-2-yl]-3-methyl-1,3-dihydro-2H-benzimidazol-2-one], the pEC50 was 6.65.

Regarding `Cc1ccc(-c2ccc3c(c2)n(C)c(=O)n3CC(C)(C)C)c(C#N)c1` [Example 1-94, 2-[1-(2,2-dimethylpropyl)-3-methyl-2-oxo-2,3-dihydro-1H-benzimidazol-5-yl]-5-methylbenzonitrile], the pEC50 was 7.39.

On to `Cn1c(=O)n(CC(C)(C)C)c2ccc(-c3cncc(Oc4ccc(C#N)nc4)n3)cc21` [Example 5-22, 5-({6-[1-(2,2-dimethylpropyl)-3-methyl-2-oxo-2,3-dihydro-1H-benzimidazol-5-yl]pyrazin-2-yl}oxy)pyridine-2-carbonitrile], for which the pEC50 was 6.44.

`Cn1c(=O)n(CC(C)(C)C)c2ccc(-c3cccc(Oc4ccccc4)c3)cc21` [Example 4-8, 1-(2,2-dimethylpropyl)-3-methyl-5-(3-phenoxyphenyl)-1,3-dihydro-2H-benzimidazol-2-one]: the pEC50 is 5.90. Still for that read-out and setting: the value for `Cn1c(=O)n(CC(C)(C)C)c2ccc(-c3cccc(Oc4cc(C(F)(F)F)ccn4)c3)cc21` [Example 2-4, 1-(2,2-dimethylpropyl)-3-methyl-5-(3-{[4-(trifluoromethyl)pyridin-2-yl]oxy}phenyl)-1,3-dihydro-2H-benzimidazol-2-one] was 6.30. `CN1CCN(c2ccc(-c3ccc4c(c3F)n(C)c(=O)n4CC3(C)CC3)cn2)CC1` [Example 7-19, 4-fluoro-3-methyl-1-[(1-methylcyclopropyl)methyl]-5-[6-(4-methylpiperazin-1-yl)pyridin-3-yl]-1,3-dihydro-2H-benzimidazol-2-one]: the negative-log EC50 (pEC50) was 6.11.

The same assay, now with this note: potentiation after EC20 glutamate (900 nM); read-out: EC50 potentiating the mGluR2 receptor in the FLIPR assay.
In the case of `Cc1ccccc1-c1ccc2c(c1)n(C)c(=O)n2C1CCN(C(=O)OC(C)(C)C)CC1` [Example 1-205, tert-butyl 4-[3-methyl-5-(2-methylphenyl)-2-oxo-2,3-dihydro-1H-benzimidazol-1-yl]piperidine-1-carboxylate], the pEC50 was less than 4.52. On to `Cc1ccccc1-c1ccc2c(c1)n(C)c(=O)n2C1CCN(c2ncccn2)CC1` [Example 1-201, 3-methyl-5-(2-methylphenyl)-1-(1-pyrimidin-2-ylpiperidin-4-yl)-1,3-dihydro-2H-benzimidazol-2-one], for which the pEC50 is 4.92. As for `Cn1c(=O)n(C2CCNCC2)c2ccc(-c3ccccc3C(N)=O)cc21` [Example 1-203, 2-(3-methyl-2-oxo-1-piperidin-4-yl-2,3-dihydro-1H-benzimidazol-5-yl)benzamide], the pEC50 is less than 4.52. Consider `Cn1c(=O)n(C2CCN(c3ncccn3)CC2)c2ccc(-c3ccccc3C(N)=O)cc21` [Example 1-206, 2-[3-methyl-2-oxo-1-(1-pyrimidin-2-ylpiperidin-4-yl)-2,3-dihydro-1H-benzimidazol-5-yl]benzamide], for which the pEC50 is 4.70. Same read-out and setting: the value for `Cc1ccccc1-c1ccc2c(c1)n(C)c(=O)n2C1CCNCC1` [Example 1-202, 3-methyl-5-(2-methylphenyl)-1-piperidin-4-yl-1,3-dihydro-2H-benzimidazol-2-one] was less than 4.52.

Values taken from patent US8993779B2, “Positive allosteric modulators of MGLUR2” (Merck Sharp & Dohme Corp., priority 2010, dated 2015).
